The target of one assay is human SMG1 enzyme (Homo sapiens, UniProt Q96Q15). The assay is described as follows: Measurement of SMG1 kinase activity (ADP-Glo Kinase Assay). Particulars: purified human SMG1 enzyme 5 nM, Upf1 peptide substrate, ATP 4 μM; qAC50 synonymous with IC50; read-out: Test Example 1 ADP-Glo IC50. In kind it is biochemical. In a few lines:
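ADP-Glo luminescence readout of ADP made by 5 nM human SMG1 acting on 8 μg/mL Upf1 peptide with 4 μM ATP for 60 min at room temperature, after a 15 min enzyme–compound preincubation (1% DMSO; pH 7.5 HEPES, MnCl2). Activity scaled between DMSO and no-enzyme wells; IC50 by four-parameter logistic regression.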

For assay [1], the system named is Snhg1 transcript (NMD target gene) in EMT6 murine breast cancer cell line. Put plainly: Measurement of NMD inhibitory activity in cells (increase in Snhg1 transcript, real-time PCR). Particulars: Mus musculus, 6 hours treatment, concentration giving 1/2 of maximum Snhg1 fold change of positive control, read-out: Test Example 2 Cell-based Snhg1 EC50. Also on record: species or system mouse. In a few lines:
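EMT6 cells treated with serially diluted compound (2% DMSO final) for 6 h; Snhg1 transcript quantified by real-time PCR (ΔΔCT, Tbp endogenous control, untreated wells set to 1). EC50 taken as concentration giving half the maximum fold change of a known NMD inhibitor positive control.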

Chain of human SMG1 enzyme (Q96Q15 whole entry): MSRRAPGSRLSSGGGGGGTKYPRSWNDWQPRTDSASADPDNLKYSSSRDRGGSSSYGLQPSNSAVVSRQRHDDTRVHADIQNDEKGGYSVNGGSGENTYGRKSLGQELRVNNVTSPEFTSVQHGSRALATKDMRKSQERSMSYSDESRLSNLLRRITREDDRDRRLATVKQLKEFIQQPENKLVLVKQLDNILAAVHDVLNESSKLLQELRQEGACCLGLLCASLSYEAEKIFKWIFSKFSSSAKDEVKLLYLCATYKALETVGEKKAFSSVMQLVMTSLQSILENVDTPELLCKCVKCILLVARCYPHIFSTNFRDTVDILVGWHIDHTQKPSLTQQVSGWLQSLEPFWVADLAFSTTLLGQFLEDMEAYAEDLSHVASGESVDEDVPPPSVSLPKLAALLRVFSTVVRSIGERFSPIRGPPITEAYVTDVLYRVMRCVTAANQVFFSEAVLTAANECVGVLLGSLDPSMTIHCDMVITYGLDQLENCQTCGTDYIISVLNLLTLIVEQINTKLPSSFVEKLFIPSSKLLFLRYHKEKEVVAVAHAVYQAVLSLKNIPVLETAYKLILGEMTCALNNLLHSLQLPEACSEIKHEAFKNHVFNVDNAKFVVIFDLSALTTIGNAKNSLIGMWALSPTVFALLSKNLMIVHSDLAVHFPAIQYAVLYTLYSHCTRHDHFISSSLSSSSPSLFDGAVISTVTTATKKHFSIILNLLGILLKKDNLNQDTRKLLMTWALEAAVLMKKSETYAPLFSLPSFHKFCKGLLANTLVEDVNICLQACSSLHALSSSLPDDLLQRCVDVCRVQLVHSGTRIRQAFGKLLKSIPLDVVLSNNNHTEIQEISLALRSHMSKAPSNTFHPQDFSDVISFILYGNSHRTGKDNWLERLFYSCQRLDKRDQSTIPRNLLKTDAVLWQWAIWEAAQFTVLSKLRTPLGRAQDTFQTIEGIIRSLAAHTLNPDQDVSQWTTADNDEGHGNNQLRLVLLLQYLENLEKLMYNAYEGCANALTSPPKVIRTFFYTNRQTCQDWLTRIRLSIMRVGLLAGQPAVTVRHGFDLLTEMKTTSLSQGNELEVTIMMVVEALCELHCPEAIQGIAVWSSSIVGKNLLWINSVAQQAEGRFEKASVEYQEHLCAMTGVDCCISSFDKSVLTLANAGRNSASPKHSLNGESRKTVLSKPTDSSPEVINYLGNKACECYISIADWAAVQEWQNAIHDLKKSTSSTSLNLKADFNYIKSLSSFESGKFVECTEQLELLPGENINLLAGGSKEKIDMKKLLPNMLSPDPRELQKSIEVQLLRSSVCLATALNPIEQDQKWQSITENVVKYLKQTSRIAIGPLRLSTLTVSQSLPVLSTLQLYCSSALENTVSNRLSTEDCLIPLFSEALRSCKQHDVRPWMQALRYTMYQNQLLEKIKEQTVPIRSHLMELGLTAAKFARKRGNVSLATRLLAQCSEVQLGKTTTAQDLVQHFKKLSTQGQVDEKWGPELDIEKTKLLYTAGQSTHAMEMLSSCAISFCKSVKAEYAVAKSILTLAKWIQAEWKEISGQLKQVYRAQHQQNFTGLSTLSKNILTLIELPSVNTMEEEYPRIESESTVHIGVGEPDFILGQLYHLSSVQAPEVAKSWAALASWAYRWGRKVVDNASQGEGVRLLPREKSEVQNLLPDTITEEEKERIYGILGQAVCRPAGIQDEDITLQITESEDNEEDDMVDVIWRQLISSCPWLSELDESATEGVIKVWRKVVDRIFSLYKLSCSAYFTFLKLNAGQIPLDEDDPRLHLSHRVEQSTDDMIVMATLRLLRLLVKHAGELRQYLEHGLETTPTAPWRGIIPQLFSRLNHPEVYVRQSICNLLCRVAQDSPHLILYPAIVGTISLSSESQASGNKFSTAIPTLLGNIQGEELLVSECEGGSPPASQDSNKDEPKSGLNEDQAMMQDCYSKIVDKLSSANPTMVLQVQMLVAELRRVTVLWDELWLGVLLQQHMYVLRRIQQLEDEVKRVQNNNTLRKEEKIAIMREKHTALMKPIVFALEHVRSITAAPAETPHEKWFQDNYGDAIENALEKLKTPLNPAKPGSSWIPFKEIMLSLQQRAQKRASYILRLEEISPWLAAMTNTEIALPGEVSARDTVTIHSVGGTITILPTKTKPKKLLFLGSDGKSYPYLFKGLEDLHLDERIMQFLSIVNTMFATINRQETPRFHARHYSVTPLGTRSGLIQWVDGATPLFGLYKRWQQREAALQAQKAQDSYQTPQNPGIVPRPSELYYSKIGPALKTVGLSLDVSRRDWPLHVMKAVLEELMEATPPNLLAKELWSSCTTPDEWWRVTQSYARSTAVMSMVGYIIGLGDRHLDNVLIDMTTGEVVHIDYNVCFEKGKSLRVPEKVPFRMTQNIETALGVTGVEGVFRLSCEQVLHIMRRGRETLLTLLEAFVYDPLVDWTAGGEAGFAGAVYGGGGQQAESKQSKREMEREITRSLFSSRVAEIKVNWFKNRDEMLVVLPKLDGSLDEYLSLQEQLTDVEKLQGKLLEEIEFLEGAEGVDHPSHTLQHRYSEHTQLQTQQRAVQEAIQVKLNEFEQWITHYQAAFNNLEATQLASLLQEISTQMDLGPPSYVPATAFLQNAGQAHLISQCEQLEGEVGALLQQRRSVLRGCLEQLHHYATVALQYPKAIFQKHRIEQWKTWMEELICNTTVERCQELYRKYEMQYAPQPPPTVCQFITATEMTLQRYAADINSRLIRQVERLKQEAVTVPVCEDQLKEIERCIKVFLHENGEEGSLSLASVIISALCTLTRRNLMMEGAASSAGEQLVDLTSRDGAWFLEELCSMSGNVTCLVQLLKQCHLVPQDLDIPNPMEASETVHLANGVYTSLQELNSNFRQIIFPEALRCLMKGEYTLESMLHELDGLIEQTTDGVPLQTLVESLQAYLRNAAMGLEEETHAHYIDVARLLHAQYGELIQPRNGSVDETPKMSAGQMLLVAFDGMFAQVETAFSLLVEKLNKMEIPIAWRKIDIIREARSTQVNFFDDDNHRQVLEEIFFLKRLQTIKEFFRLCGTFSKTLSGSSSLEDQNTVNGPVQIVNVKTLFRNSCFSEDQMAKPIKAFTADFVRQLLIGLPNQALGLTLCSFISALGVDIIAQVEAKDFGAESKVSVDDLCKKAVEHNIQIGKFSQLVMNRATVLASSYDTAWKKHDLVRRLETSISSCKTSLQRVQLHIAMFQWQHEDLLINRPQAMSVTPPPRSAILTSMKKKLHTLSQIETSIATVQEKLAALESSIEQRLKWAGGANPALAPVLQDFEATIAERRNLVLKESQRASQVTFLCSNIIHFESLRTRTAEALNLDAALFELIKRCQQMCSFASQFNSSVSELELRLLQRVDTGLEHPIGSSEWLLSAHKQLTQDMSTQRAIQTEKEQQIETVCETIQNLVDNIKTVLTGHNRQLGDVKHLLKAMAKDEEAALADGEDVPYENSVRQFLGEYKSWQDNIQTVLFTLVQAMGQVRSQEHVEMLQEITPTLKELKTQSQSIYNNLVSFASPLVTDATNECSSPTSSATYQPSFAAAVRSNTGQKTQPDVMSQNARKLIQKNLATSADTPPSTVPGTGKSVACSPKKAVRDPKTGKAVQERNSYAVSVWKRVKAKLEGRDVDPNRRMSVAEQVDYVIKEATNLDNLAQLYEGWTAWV

With `O=C(C1CC1)N1CCC=C(c2nccc3[nH]c(=O)c(-c4nc5cnc(Cl)cc5[nH]4)cc23)C1` [Example 105, 3-(6-chloro-1H-imidazo[4,5-c]pyridin-2-yl)-5-[1-(cyclopropylcarbonyl)-1,2,5,6-tetrahydropyridin-3-yl]-1,6-naphthyridin-2(1H)-one], the half-maximal inhibitory concentration (IC50) on human SMG1 enzyme was determined as 1.5 nM. In assay [1], the EC50 was 59 nM.
As for `O=c1[nH]c2ccnc(C3CCCCN(S(=O)(=O)c4ccccc4)C3)c2cc1-c1nc2cnc(Cl)cc2[nH]1` (centres unmarked) [Example 106, 3-(6-chloro-1H-imidazo[4,5-c]pyridin-2-yl)-5-[1-(phenylsulfonyl)azepan-3-yl]-1,6-naphthyridin-2(1H)-one], the IC50 on human SMG1 enzyme turned out to be 2.5 nM. For the same compound, in assay [1], the concentration for a half-maximal effect (EC50) amounted to 87 nM.
Consider `CN1CCCN(C)c2nc(Cl)cc3[nH]c(nc23)-c2cc3c(nccc3[nH]c2=O)-c2ccc(cc2F)C1=O` [Example 107, 7-Chloro-18-fluoro-10,14-dimethyl-3,8,10,14,21,25,31-heptaazahexacyclo[18.6.2.2^16,19.1^2,5.0^4,9.0^24,28]hentriacont-1(27),2,4,6,8,16,18,20(28),21,23,29-undecaen-15,26-dione], for which, at human SMG1 enzyme, the IC50 was found to be 0.64 nM. Besides, the EC50 in assay [1] was found to be 30 nM.
In the same order, the values of `Cc1c2cccc1-c1nccc3[nH]c(=O)c(cc13)-c1nc3c(nc(Cl)cc3[nH]1)N(C)CCCN(C)C2=O` [Example 108, 7-chloro-10,14,30-trimethyl-3,8,10,14,22,26,31-heptaazahexacyclo[19.6.2.1^2,5.1^16,20.0^4,9.0^25,29]hentriacont-1(28),2,4,6,8,16(30),17,19,21(29),22,24-undecaen-15,27-dione] are 1 nM and 2 nM.
Take `Cc1cc2ccc1-c1nccc3[nH]c(=O)c(cc13)-c1nc3c(nc(Cl)cc3[nH]1)N(C)CCC(=O)N(C)C2` [Example 109, 7-chloro-10,14,18-trimethyl-3,8,10,14,21,25,31-heptaazahexacyclo[18.6.2.2^16,19.1^2,5.0^4,9.0^24,28]hentriacont-1(27),2,4,6,8,16,18,20(28),21,23,29-undecaen-13,26-dione]: the IC50 on human SMG1 enzyme worked out at 2.3 nM. Further, the concentration for a half-maximal effect (EC50) in assay [1] was determined as 165 nM.
For `Cc1c2cccc1-c1nccc3[nH]c(=O)c(cc13)-c1nc3c(nc(Cl)cc3[nH]1)N1CCCN(CC1)C(=O)CO2` [Example 110, 7-chloro-32-methyl-17-oxa-3,8,10,14,24,28,35-heptaazaheptacyclo[21.6.2.2^10,14.1^2,5.1^18,22.0^4,9.0^27,31]pentatriacont-1(30),2,4,6,8,18(32),19,21,23(31),24,26-undecaen-15,29-dione], in that order: 1.3 nM and 1.1 nM.
In the same order, the values of `Cc1c2cccc1-c1nccc3[nH]c(=O)c(cc13)-c1nc3c(nc(Cl)cc3[nH]1)NCC(C)(C)NC(=O)CO2` [Example 111, 7-chloro-12,12,31-trimethyl-16-oxa-3,8,10,13,23,27,32-heptaazahexacyclo[20.6.2.1^2,5.1^17,21.0^4,9.0^26,30]dotriacont-1(29),2,4,6,8,17(31),18,20,22(30),23,25-undecaen-14,28-dione] are 1.6 nM and 8.4 nM.
For `O=C1CS(=O)(=O)c2cccc(c2)-c2nccc3[nH]c(=O)c(cc23)-c2nc3c(nc(Cl)cc3[nH]2)N2CCCN1CC2` [Example 112, 7-chloro-17-thia-3,8,10,14,24,28,35-heptaazaheptacyclo[21.6.2.2^10,14.1^2,5.1^18,22.0^4,9.0^27,31]pentatriacont-1(30)2,4,6,8,18(32),19,21,23(31),24,26-undecaen-15,29-dione17,17-dioxide], in that order: 1.3 nM and 510 nM.
For the compound `Cc1nn2c(C)c1-c1nccc3[nH]c(=O)c(cc13)-c1nc3c(nc(Cl)cc3[nH]1)N(C)CCCCN(C)C(=O)C2` [Example 113, 7-chloro-10,15,20,31-tetramethyl-3,8,10,15,18,19,23,27,32-nonaazahexacyclo[20.6.2.1^2,5.1^18,21.0^4,9 .0^26,30]dotriacont-1(29),2,4,6,8,19,21(31),22(30),23,25-decaen-16,28-dione], the IC50 on human SMG1 enzyme came out at 0.38 nM. Further, the concentration giving a half-maximal response (EC50) in assay [1] turned out to be 8.3 nM.
For `Cc1nn2c(C)c1-c1nccc3[nH]c(=O)c(cc13)-c1nc3c(nc(Cl)cc3[nH]1)N(C)CCCN(C)C(=O)C2C` (centres unmarked) [Example 114, 7-chloro-10,14,16,19,30-pentamethyl-3,8,10,14,17,18,22,26,31-nonaazahexacyclo[19.6.2.1^2,5.1^17,20.0^4,9.0^25,29]hentriacont-1(28),2,4,6,8,18,20(30),21(29),22,24-decaen-15,27-dione], in that order: 1.1 nM and 3.2 nM.
For `Cc1nn2c(C)c1-c1nccc3[nH]c(=O)c(cc13)-c1nc3c(nc(Cl)cc3[nH]1)NCC(C)(C)CNC(=O)C2` [Example 115, 7-chloro-12,12,19,30-tetramethyl-3,8,10,14,17,18,22,26,31-nonaazahexacyclo[19.6.2.1^2,5.1^17,20.0^4,9.0^25,29]hentriacont-1(28),2,4,6,8,18,20(30),21(29),22,24-decaen-15,27-dione], in that order: 0.64 nM and 58 nM.
Take `O=C1CCn2cc(cn2)-c2nccc3[nH]c(=O)c(cc23)-c2nc3c(nc(Cl)cc3[nH]2)N2CCCN1CC2` [Example 116, 7-chloro-3,8,10,14,18,19,23,27,34-nonaazaheptacyclo[20.6.2.2^10,14.1^2,5.1^18,21.0^4,9.0^26,30]tetratriacont-1(29),2,4,6,8,19,21(31),22(30),23,25-decaen-15,28-dione]: the IC50 on human SMG1 enzyme was 1.2 nM. For the same compound, the concentration for a half-maximal effect (EC50) in assay [1] was 38 nM.
As to `C[C@@H]1C[C@@H](F)CN1c1nc(Cl)cc2[nH]c(-c3cc4c(C5CCOCC5)nccc4[nH]c3=O)nc12` [Example 119, 3-{6-chloro-4-[(2R,4R)-4-fluoro-2-methylpyrrolidin-1-yl]-1H-imidazo[4,5-c]pyridin-2-yl}-5-(tetrahydro-2H-pyran-4-yl)-1,6-naphthyridin-2(1H)-one methanesulfonate], on human SMG1 enzyme, the half-maximal inhibitory concentration (IC50) was 3.4 nM. Also, in assay [1], the EC50 worked out at 24 nM.
For `C[C@@H]1C[C@H](O)CN1c1nc(Cl)cc2[nH]c(-c3cc4cnccc4[nH]c3=O)nc12` [Example 120, 3-{6-chloro-4-[(2R,4S)-4-hydroxy-2-methylpyrrolidin-1-yl]-1H-imidazo[4,5-c]pyridin-2-yl}-1,6-naphthyridin-2(1H)-one methanesulfonate], in that order: 0.96 nM and 37 nM.
For `Cc1nccc2[nH]c(=O)c(-c3nc4c(N5C[C@H](O)C[C@H]5C)nc(Cl)cc4[nH]3)cc12` [Example 121, 3-{6-chloro-4-[(2R,4R)-4-hydroxy-2-methylpyrrolidin-1-yl]-1H-imidazo[4,5-c]pyridin-2-yl}-5-methyl-1,6-naphthyridin-2(1H)-one methanesulfonate], in that order: 1.4 nM and 46 nM.
For `CCc1nccc2[nH]c(=O)c(-c3nc4c(N5CC[C@H](O)[C@H]5C)nc(Cl)cc4[nH]3)cc12` [Example 122, 3-{6-chloro-4-[(2R,3S)-3-hydroxy-2-methylpyrrolidin-1-yl]-1H-imidazo[4,5-c]pyridin-2-yl}-5-ethyl-1,6-naphthyridin-2(1H)-one methanesulfonate], in that order: 2.2 nM and 28 nM.

These data come from US20260109715A1, “IMIDAZOPYRIDINE DERIVATIVES WITH BICYCLIC STRUCTURE” (PUBLIC UNIVERSITY CORPORATION YOKOHAMA CITY UNIVERSITY, priority 2022, published 2026).
